Laboratory results taken from patent publication US10934310B2, “Inhibitors of Bruton's tyrosine kinase and method of their use” (JANSSEN PHARMACEUTICA NV, priority 2015, dated 2021).

What follows are compounds tested against unphosphorylated-BTK kinase domain (UP-BTK), GST-tagged human BTK (389-659aa) (Homo sapiens (Human), UniProt Q06187) (assay: BTK Kinase Lanthascreen Binding Assay). Details: Lanthascreen binding, 60 minutes incubation; pIC50 = negative log of the IC50 in molar.
Sequence of unphosphorylated-BTK kinase domain (UP-BTK), GST-tagged human BTK (389-659aa) (Q06187 389-659): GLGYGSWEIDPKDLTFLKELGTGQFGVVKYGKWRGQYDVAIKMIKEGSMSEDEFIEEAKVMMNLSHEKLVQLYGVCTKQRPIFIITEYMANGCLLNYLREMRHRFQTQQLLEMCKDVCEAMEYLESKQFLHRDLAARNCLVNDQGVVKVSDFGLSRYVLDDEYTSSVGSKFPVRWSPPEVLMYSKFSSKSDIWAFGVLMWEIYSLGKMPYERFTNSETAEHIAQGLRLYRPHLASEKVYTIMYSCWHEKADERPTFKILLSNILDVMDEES
Procedure: BTK Kinase Lanthascreen Binding Assay:
A BTK kinase lanthascreen binding assay monitors compound binding to unphosphorylated-BTK kinase domain (UP-BTK), by competing with a fluorescent labeled tracer. […] Data were analyzed using Xlfit™ version 5.3 from ID Business Solutions (Guildford), Microsoft Excel add-in. pIC50 refers to the negative log of the IC50 in molar.
For `C=CC(=O)N[C@H]1CCC[C@H]1NC(=O)c1sc2nccc3c2c1NC(=O)N3c1cnc(Oc2cncnc2)cc1C` [Example 486, N-((1R,2S)-2-Acrylamidocyclopentyl)-5-(4-methyl-6-(pyrimidin-5-yloxy)pyridin-3-yl)-4-oxo-4,5-dihydro-3H-1-thia-3,5,8-triazaacenaphthylene-2-carboxamide], the “BTK_I_binding pIC50” value was 7.39.
With `C=CC(=O)N[C@H]1CCC[C@H]1NC(=O)c1sc2nccc3c2c1NC(=O)N3c1cnc(Oc2ccc(C)nc2)cc1C` [Example 487, N-((1R,2S)-2-Acrylamidocyclopentyl)-5-(4-methyl-6-((6-methylpyridin-3-yl)oxy)pyridin-3-yl)-4-oxo-4,5-dihydro-3H-1-thia-3,5,8-triazaacenaphthylene-2-carboxamide] the “BTK_I_binding pIC50” value was 6.87.
In the case of `C=CC(=O)N[C@H]1CCC[C@H]1NC(=O)c1sc2nccc3c2c1NC(=O)N3c1cnc(Oc2ccccn2)cc1C` [Example 488, N-((1R,2S)-2-Acrylamidocyclopentyl)-5-(4-methyl-6-(pyridin-2-yloxy)pyridin-3-yl)-4-oxo-4,5-dihydro-3H-1-thia-3,5,8-triazaacenaphthylene-2-carboxamide], the “BTK_I_binding pIC50” value is reported as 7.62.
In the case of `C=CC(=O)N[C@H]1CCC[C@H]1NC(=O)c1sc2nccc3c2c1NC(=O)N3c1cnc(Oc2cccnc2C)cc1C` [Example 489, N-((1R,2S)-2-Acrylamidocyclopentyl)-5-(4-methyl-6-((2-methylpyridin-3-yl)oxy)pyridin-3-yl)-4-oxo-4,5-dihydro-3H-1-thia-3,5,8-triazaacenaphthylene-2-carboxamide], the “BTK_I_binding pIC50” value is reported as 7.03.
`C=CC(=O)N[C@H]1CCC[C@H]1NC(=O)c1sc2nccc3c2c1NC(=O)N3c1cnc(Oc2cccnc2)cc1C` [Example 490, N-((1R,2S)-2-Acrylamidocyclopentyl)-5-(4-methyl-6-(pyridin-3-yloxy)pyridin-3-yl)-4-oxo-4,5-dihydro-3H-1-thia-3,5,8-triazaacenaphthylene-2-carboxamide] was tested, and the “BTK_I_binding pIC50” value was 7.40.
`C=CC(=O)N[C@H]1CCC[C@H]1NC(=O)c1sc2nccc3c2c1NC(=O)N3c1ccc(Oc2cccnc2)cn1` [Example 491, N-((1R,2S)-2-Acrylamidocyclopentyl)-4-oxo-5-(5-(pyridin-3-yloxy)pyridin-2-yl)-4,5-dihydro-3H-1-thia-3,5,8-triazaacenaphthylene-2-carboxamide] was tested, and the “BTK_I_binding pIC50” value was 7.43.
With `C=CC(=O)N[C@H]1CCC[C@H]1NC(=O)c1sc2nccc3c2c1NC(=O)N3c1ccc(Oc2cncnc2)nc1C` [Example 492, N-((1R,2S)-2-Acrylamidocyclopentyl)-5-(2-methyl-6-(pyrimidin-5-yloxy)pyridin-3-yl)-4-oxo-4,5-dihydro-3H-1-thia-3,5,8-triazaacenaphthylene-2-carboxamide] the “BTK_I_binding pIC50” value was 6.66.
For `C=CC(=O)N[C@H]1CCC[C@H]1NC(=O)c1sc2nccc3c2c1NC(=O)N3c1ccc(Oc2cccnc2C)cn1` [Example 493, N-((1R,2S)-2-Acrylamidocyclopentyl)-5-(5-((2-methylpyridin-3-yl)oxy)pyridin-2-yl)-4-oxo-4,5-dihydro-3H-1-thia-3,5,8-triazaacenaphthylene-2-carboxamide], the “BTK_I_binding pIC50” value was 7.32.
With `C=CC(=O)N[C@H]1CCC[C@H]1NC(=O)c1sc2nccc3c2c1NC(=O)N3c1ccc(Oc2cccnc2)nc1C` [Example 494, N-((1R,2S)-2-Acrylamidocyclopentyl)-5-(2-methyl-6-(pyridin-3-yloxy)pyridin-3-yl)-4-oxo-4,5-dihydro-3H-1-thia-3,5,8-triazaacenaphthylene-2-carboxamide] the “BTK_I_binding pIC50” value was 7.37.
`C=CC(=O)N[C@H]1CCC[C@H]1NC(=O)c1sc2nccc3c2c1NC(=O)N3c1ccc(Oc2ccc(C)nc2)nc1C` [Example 495, N-((1R,2S)-2-Acrylamidocyclopentyl)-5-(2-methyl-6-((6-methylpyridin-3-yl)oxy)pyridin-3-yl)-4-oxo-4,5-dihydro-3H-1-thia-3,5,8-triazaacenaphthylene-2-carboxamide] was tested, and the “BTK_I_binding pIC50” value was 6.63.
`C=CC(=O)N[C@H]1CCC[C@H]1NC(=O)c1sc2nccc3c2c1NC(=O)N3c1ccc(Oc2cncnc2)cc1` [Example 508, N-((1R,2S)-2-acrylamidocyclopentyl)-4-oxo-5-(4-(pyrimidin-5-yloxy)phenyl)-4,5-dihydro-3H-1-thia-3,5,8-triazaacenaphthylene-2-carboxamide] was tested, and the “BTK_I_binding pIC50” value was 7.48.
